Source: patent publication US10047081B2, “BACE1 inhibitors” (Hoffmann-La Roche Inc., priority 2015, dated 2018)
Like-named read-outs stand apart in the source and are kept apart here. Values belong to the compound of their own block, whether it stands above or below them.

Legend:
[1] = biological target: T1, cathepsin D (from human liver) (Homo sapiens, UniProt P07339); assay: Cathepsin D fluorescent substrate kinetic assay; type: biochemical; settings: pH 5.5, substrate WTSVLMAAPC-MR121
T1 construct: cathepsin D (from human liver, Calbiochem) diluted in assay buffer; purchased Calbiochem; host or cells: human liver
Excerpt: (§1) Cathepsin D and Cathepsin E Fluorescent Substrate Kinetic Assays
(§2) The MR121 fluorescence assays described below are based on the fact that MR121 forms a non-fluorescent ground state complex with tryptophan. In solution this formation occurs at millimolar concentrations of tryptophan. The mechanism can be used to design a generic biochemical assay for proteases. A substrate peptide is labeled at the N-terminus with tryptophan and at the C-terminus with the fluorophore MR121 (for cathepsin D the 10 amino acid peptide WTSVLMAAPC-MR121 was used; for cathepsin E, MR121-CKLVFFAEDW was used). In absence of protease activity, the substrates remain intact and the MR121 fluorescence is reduced by the high local Trp-concentration. If the substrates are cleaved by the enzymes the MR121 fluorescence is recovered.
(§3) The fluorescent substrate cathepsin D and cathepsin E kinetic assays were performed at room temperature in 384-well microtiter plates (black with clear flat bottom, non-binding surface plates from Corning) in a final volume of 51 μl. The test compounds were serially diluted in DMSO (15 concentrations, ⅓ dilution steps) and 1 μl of diluted compounds were mixed for 10 min with 40 μl of cathepsin D (from human liver, Calbiochem) diluted in assay buffer (100 mM sodium acetate, 0.05% BSA, pH 5.5; final concentration:200 nM) or with 40 μl of recombinant human cathepsin E (R&D Systems) diluted in assay buffer (100 mM sodium acetate, 0.05% BSA, pH 4.5; final concentration:0.01 nM). After addition of 10 μl of the cathepsin D substrate WTSVLMAAPC-MR121 diluted in cathepsin D assay buffer (final concentration:300 nM) or 10 μl of the cathepsin E substrate MR121-CKLVFFAEDW diluted in cathepsin E assay buffer (final concentration:300 nM), the plates were strongly shaken for 2 minutes. The enzymatic reaction was followed in a plate: vision reader (Perkin Elmer) (excitation wavelength:630 nm; emission:695 nm) for at least 30 minutes in a kinetic measurement detecting an increase of MR121 fluorescence during the reaction time. The slope in the linear range of the kinetic was calculated and the IC50 of the test compounds were determined using a four parameter equation for curve fitting.

CYP3A4 = biological target: T2, CYP3A4 (Homo sapiens, UniProt P08684); assay: CYP inhibition assay, human liver microsomes; type: in vitro ADME
T2 construct: 0.2 mg/ml pooled human liver microsomes; from tissue; host or cells: pooled human liver microsomes
Protocol: (§4) Inhibition of cytochromes P450 (CYPs) 2C9, 2D6 and 3A4 was assessed using human liver microsomes and CYP-selective substrate metabolism reactions. 50 μl incubations were made up containing (finally) 0.2 mg/ml pooled human liver microsomes, 5 μM substrate (diclofenac for CYP2C9 [4′hydroxylase], dextromethorphan for CYP2D6 [O-demethylase] or midazolam for CYP3A4 [1′hydroxylase]), 0.25 μL DMSO containing test inhibitor and NADPH regenerating system. Test inhibitor concentrations of 50, 16.7, 5.6, 1.9, 0.6 and 0.2 μM were assessed in singlicate. Incubations were prewarmed to 37° C. for 10 minutes before initiation by addition of NADPH regenerating system. Incubations were quenched after 5 minutes (20 minutes for dextromethorphan) by addition of 50 μl cold acetonitrile containing 20 ng/ml 4-OH-diclofenac-13C6, 20 ng/mL dextrorphan-D3 and 20 ng/mL 1-OH-midazolam-D4. Quenched incubates were stored at −20° C. for at least 1 hour before centrifugation (20,000× g, 20 minutes). Supernatants were removed and diluted 1:1 with water prior to analysis using a RapidFire sample injector system and API4000 mass spectrometer. Peak areas for substrate, metabolite and stable-labelled metabolite standard were determined using MS/MS. The peak area ratios between the metabolite generated by the enzymatic reaction and the internal standard were used in subsequent calculations. The percentage of (DMSO) control activity was calculated for each incubate and IC50 values estimated by non-linear regression. Sulfaphenazole, quinidine or ketoconazole were tested in each CYP2C9, CYP2D6 or CYP3A4 inhibition experiment, respectively, to ensure assay sensitivity and reproducibility. (Validated assays for human cytochrome P450 activities, R. L. Walsky and R. S. Obach, Drug Metabolism and Disposition 32: 647-660, 2004. and S. Fowler and H. Zhang, The AAPS Journal, Vol. 10, No. 2, 410-424, 2008)

CYP2D6 = biological target: T3, CYP2D6 (Homo sapiens, UniProt P10635); assay: CYP inhibition assay, human liver microsomes; type: in vitro ADME
T3 construct: 0.2 mg/ml pooled human liver microsomes; from tissue; host or cells: pooled human liver microsomes
Protocol: as §4

CYP2C9 = biological target: T4, CYP2C9 (Homo sapiens, UniProt P11712); assay: CYP inhibition assay, human liver microsomes; type: in vitro ADME
T4 construct: 0.2 mg/ml pooled human liver microsomes; from tissue; host or cells: pooled human liver microsomes
Protocol: as §4

[2] = biological target: T5, recombinant human cathepsin E (Homo sapiens, UniProt P14091); assay: Cathepsin E fluorescent substrate kinetic assay; type: biochemical; settings: pH 4.5, substrate MR121-CKLVFFAEDW
T5 construct: purchased R&D Systems
T5 sequence (P14091 54-396): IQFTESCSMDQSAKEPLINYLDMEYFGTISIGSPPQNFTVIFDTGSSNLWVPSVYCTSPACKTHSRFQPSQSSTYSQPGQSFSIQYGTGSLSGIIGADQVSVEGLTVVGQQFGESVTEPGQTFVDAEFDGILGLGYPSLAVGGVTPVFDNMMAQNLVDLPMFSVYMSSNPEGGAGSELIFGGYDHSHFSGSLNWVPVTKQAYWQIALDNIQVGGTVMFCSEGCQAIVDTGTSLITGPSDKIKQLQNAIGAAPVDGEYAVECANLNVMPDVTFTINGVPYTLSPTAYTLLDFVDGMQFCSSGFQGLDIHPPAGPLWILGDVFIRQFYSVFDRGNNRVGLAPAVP
Excerpt: as §1, §2, §3

BACE1 = biological target: T6, BACE1 (Homo sapiens, UniProt P56817); assay: Cellular Aβ-lowering assay (Abeta 40 AlphaLISA, HEK293 APP cells); type: cell-based; settings: 18-20 hrs incubation, Aβ 40 in culture supernatant, read-out: BACE1 cell act. Aβ40 IC50
T6 construct: endogenous in cells; host or cells: HEK293 APP cells
Protocol: Cellular Aβ-Lowering Assay:
The Abeta 40 AlphaLISA Assay can be used. The HEK293 APP cells were seeded in 96 well Microtiter plates in cell culture medium (Iscove's, plus 10% (v/v) fetal bovine serum, penicillin/streptomycin) to about 80% confluency and the compounds were added at a 3× concentration in ⅓ volume of culture medium (final DMSO concentration was kept at 1% v/v). After 18-20 hrs incubation at 37° C. and 5% CO2 in a humidified incubator, the culture supernatants were harvested for the determination of Aβ 40 concentrations using Perkin-Elmer Human Amyloid beta 1-40 (high specificity) Kit (Cat#AL275C).
In a Perkin-Elmer White Optiplate-384 (Cat#6007290), 2 ul culture supernatants were combined with 2 μl of a 10× AlphaLISA Anti-hAβAcceptor beads + Biotinylated Antibody Anti-Aβ 1-40 Mix (50 μg/mL/5 nM). After 1 hour room temperature incubation, 16 μl of a 1.25× preparation of Streptavidin (SA) Donor beads (25 μg/mL) were added and incubated for 30 minutes in the Dark. Light Emission at 615 nm was then recorded using EnVision-Alpha Reader. Levels of Aβ 40 in the culture supernatants were calculated as percentage of maximum signal (cells treated with 1% DMSO without inhibitor). The IC50 values were calculated using the Excel XLfit software.

T6 sequence (P56817 46-501): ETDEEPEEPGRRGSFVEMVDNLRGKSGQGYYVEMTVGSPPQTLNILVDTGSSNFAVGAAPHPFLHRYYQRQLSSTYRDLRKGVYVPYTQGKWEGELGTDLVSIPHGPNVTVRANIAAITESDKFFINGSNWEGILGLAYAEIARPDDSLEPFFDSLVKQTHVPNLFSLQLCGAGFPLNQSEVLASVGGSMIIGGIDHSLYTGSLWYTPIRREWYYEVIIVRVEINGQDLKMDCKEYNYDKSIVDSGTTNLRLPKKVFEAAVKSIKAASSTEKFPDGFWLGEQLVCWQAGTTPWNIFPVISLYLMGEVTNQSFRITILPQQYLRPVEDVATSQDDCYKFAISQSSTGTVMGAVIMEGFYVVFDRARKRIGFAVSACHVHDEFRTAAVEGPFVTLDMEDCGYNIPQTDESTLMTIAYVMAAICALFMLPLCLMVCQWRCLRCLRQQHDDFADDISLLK
T4 sequence (P11712 whole entry): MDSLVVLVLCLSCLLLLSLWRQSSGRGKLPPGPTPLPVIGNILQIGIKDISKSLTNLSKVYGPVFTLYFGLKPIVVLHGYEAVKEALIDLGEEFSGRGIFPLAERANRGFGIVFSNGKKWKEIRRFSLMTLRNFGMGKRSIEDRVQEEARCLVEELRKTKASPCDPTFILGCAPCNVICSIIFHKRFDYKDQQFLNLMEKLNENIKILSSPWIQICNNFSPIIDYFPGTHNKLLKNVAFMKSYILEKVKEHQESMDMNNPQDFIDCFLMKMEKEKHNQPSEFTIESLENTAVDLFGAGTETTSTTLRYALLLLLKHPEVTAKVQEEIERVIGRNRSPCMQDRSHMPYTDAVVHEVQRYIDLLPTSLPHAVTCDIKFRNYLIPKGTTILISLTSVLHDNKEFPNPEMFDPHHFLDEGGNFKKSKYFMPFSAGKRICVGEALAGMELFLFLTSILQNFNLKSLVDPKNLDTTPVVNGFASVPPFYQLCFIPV
T2 sequence (P08684 whole entry): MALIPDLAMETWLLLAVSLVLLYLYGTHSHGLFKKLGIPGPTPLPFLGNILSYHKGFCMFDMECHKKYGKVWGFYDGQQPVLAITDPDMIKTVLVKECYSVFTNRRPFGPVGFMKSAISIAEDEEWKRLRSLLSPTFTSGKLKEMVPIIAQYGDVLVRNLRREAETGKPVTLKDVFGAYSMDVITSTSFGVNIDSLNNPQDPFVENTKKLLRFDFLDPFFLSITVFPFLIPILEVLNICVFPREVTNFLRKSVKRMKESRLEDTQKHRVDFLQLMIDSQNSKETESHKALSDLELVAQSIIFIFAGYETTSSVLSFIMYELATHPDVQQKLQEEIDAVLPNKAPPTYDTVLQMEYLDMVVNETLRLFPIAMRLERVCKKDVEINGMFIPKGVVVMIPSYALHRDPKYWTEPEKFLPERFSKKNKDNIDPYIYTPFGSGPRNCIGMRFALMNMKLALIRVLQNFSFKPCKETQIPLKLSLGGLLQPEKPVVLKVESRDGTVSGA
T1 sequence (P07339 65-162 limits assumed): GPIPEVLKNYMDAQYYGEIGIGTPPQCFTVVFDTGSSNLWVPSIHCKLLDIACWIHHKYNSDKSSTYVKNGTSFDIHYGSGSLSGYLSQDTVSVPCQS
T1 sequence (P07339 169-412 limits assumed): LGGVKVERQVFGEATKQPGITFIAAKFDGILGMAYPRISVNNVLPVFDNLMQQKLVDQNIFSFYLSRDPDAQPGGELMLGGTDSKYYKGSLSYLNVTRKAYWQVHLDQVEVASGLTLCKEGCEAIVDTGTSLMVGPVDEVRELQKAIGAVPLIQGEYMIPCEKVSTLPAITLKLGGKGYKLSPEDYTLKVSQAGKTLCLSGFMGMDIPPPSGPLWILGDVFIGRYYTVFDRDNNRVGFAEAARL
T3 sequence (P10635 whole entry): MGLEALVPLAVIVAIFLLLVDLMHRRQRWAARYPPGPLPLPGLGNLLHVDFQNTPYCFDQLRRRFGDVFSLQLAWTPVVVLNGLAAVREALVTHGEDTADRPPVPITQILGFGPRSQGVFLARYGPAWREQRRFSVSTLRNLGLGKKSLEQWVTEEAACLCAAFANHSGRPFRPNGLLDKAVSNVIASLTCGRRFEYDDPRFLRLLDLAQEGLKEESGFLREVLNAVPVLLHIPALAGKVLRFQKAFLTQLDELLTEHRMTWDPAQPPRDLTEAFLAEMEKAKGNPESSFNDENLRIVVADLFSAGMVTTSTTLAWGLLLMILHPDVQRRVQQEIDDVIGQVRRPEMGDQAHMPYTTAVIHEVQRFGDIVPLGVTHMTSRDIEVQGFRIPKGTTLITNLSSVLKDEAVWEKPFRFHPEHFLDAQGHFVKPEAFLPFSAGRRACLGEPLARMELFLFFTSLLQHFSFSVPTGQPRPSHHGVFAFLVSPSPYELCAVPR

Structure (SMILES): CN=[S@@]1(=O)C[C@@](C)(c2cc(-c3cc(-c4ncc(Cl)cn4)no3)ccc2F)N=C(N)C12CCCC2 [Example 28, (6R,8R)-10-amino-8-(5-(3-(5-chloropyrimidin-2-yl)isoxazol-5-yl)-2-fluorophenyl)-8-methyl-6-(methylimino)-6-thia-9-azaspiro[4.5]dec-9-ene 6-oxide 2,2,2-trifluoroacetate]
IC50 [1]: 16000 nM
IC50 (CYP3A4): > 10000 nM
IC50 (CYP2D6): > 10000 nM
IC50 (CYP2C9): > 10000 nM
IC50 [2]: 7000 nM
IC50 (BACE1): 7 nM

Structure (SMILES): CN=[S@@]1(=O)C[C@@](C)(c2cc(-c3cc(-c4ncc(OC)cn4)no3)ccc2F)N=C(N)C12CCCC2 [Example 29, (6R,8R)-10-amino-8-(2-fluoro-5-(3-(5-methoxypyrimidin-2-yl)isoxazol-5-yl)phenyl)-8-methyl-6-(methylimino)-6-thia-9-azaspiro[4.5]dec-9-ene 6-oxide 2,2,2-trifluoroacetate]
IC50 (BACE1): 20 nM

Structure (SMILES): CN=[S@@]1(=O)C[C@@](C)(c2cc(-c3cc(-c4cnc(OCC(F)F)cn4)no3)ccc2F)N=C(N)C12CCCC2 [Example 30, (6R,8R)-10-amino-8-(5-(3-(5-(2,2-difluoroethoxy)pyrazin-2-yl)isoxazol-5-yl)-2-fluorophenyl)-8-methyl-6-(methylimino)-6-thia-9-azaspiro[4.5]dec-9-ene 6-oxide]
IC50 (BACE1): 104 nM

Structure (SMILES): CC1(C)C(N)=N[C@](C)(c2cc(-c3cc(-c4ncc(Cl)cn4)no3)ccc2F)C[S@]1(=O)=NC1CC1 [Example 34, (1R,3R)-3-[5-[3-(5-chloropyrimidin-2-yl)isoxazol-5-yl]-2-fluoro-phenyl]-1-cyclopropylimino-3,6,6-trimethyl-1-oxo-2H-1,4-thiazin-5-amine 2,2,2-trifluoroacetate]
IC50 (BACE1): 13 nM

Structure (SMILES): CC1(C)C(N)=N[C@](C)(c2cc(-c3cc(-c4ncc(Cl)cn4)no3)ccc2F)C[S@@]1(=O)=NC1CC1 [Example 36, (1S,3R)-5-amino-3-(5-(3-(5-chloropyrimidin-2-yl)isoxazol-5-yl)-2-fluorophenyl)-1-(cyclopropylimino)-3,6,6-trimethyl-3,6-dihydro-2H-1,4-thiazine 1-oxide 2,2,2-trifluoroacetate]
IC50 (BACE1): 7 nM

Second part, the compound after the results:

IC50 (BACE1): 92 nM
Structure (SMILES): COc1cnc(-c2cc(-c3ccc(F)c([C@]4(C)C[S@](=O)(=NC5CC5)C(C)(C)C(N)=N4)c3)on2)cn1 [Example 33, (1R,3R)-5-amino-1-(cyclopropylimino)-3-(2-fluoro-5-(3-(5-methoxypyrazin-2-yl)isoxazol-5-yl)phenyl)-3,6,6-trimethyl-3,6-dihydro-2H-1,4-thiazine 1-oxide]

IC50 (BACE1): 6 nM
Structure (SMILES): COc1cnc(-c2cc(-c3ccc(F)c([C@]4(C)C[S@@](=O)(=NCC(F)(F)F)C(C)(C)C(N)=N4)c3)on2)cn1 [Example 37, (1S,3R)-5-amino-3-(2-fluoro-5-(3-(5-methoxypyrazin-2-yl)isoxazol-5-yl)phenyl)-3,6,6-trimethyl-1-((2,2,2-trifluoroethyl)imino)-3,6-dihydro-2H-1,4-thiazine 1-oxide 2,2,2-trifluoroacetate]

IC50 (BACE1): 13 nM
Structure (SMILES): CC1(C)C(N)=N[C@](C)(c2cc(-c3cc(-c4ncc(Cl)cn4)no3)ccc2F)C[S@@]1(=O)=NCC(F)(F)F [Example 38, (1S,3R)-5-amino-3-(5-(3-(5-chloropyrimidin-2-yl)isoxazol-5-yl)-2-fluorophenyl)-3,6,6-trimethyl-1-((2,2,2-trifluoroethyl)imino)-3,6-dihydro-2H-1,4-thiazine 1-oxide 2,2,2-trifluoroacetate]

IC50 (BACE1): 232 nM
Structure (SMILES): COc1cnc(-c2cc(-c3ccc(F)c([C@]4(C)C[S@](=O)(=NCC(F)(F)F)C(C)(C)C(N)=N4)c3)on2)cn1 [Example 39, (1R,3R)-5-amino-3-(2-fluoro-5-(3-(5-methoxypyrazin-2-yl)isoxazol-5-yl)phenyl)-3,6,6-trimethyl-1-((2,2,2-trifluoroethyl)imino)-3,6-dihydro-2H-1,4-thiazine 1-oxide 2,2,2-trifluoroacetate]

IC50 (BACE1): 37 nM
Structure (SMILES): CC1(C)C(N)=N[C@](C)(c2cc(-c3cc(-c4ncc(Cl)cn4)no3)ccc2F)C[S@]1(=O)=NCC(F)(F)F [Example 40, (1R,3R)-5-amino-3-(5-(3-(5-chloropyrimidin-2-yl)isoxazol-5-yl)-2-fluorophenyl)-3,6,6-trimethyl-1-((2,2,2-trifluoroethyl)imino)-3,6-dihydro-2H-1,4-thiazine 1-oxide 2,2,2-trifluoroacetate]

IC50 [1]: 45000 nM
IC50 (CYP3A4; human liver microsomes, substrate midazolam, read-out: CYP IC50 3A4): > 10000 nM
IC50 (CYP2D6; human liver microsomes, substrate dextromethorphan, read-out: CYP IC50 2D6): > 10000 nM
IC50 (CYP2C9; human liver microsomes, substrate diclofenac, read-out: CYP IC50 2C9): > 10000 nM
IC50 [2]: 56000 nM
IC50 (BACE1): 8 nM
Structure (SMILES): COc1cnc(-c2cc(-c3ccc(F)c([C@]4(C)C[S@@](=N)(=O)C(C)(C)C(N)=N4)c3)on2)cn1 [Example 41, (1R,3R)-5-amino-3-(2-fluoro-5-(3-(5-methoxypyrazin-2-yl)isoxazol-5-yl)phenyl)-1-imino-3,6,6-trimethyl-3,6-dihydro-2H-1,4-thiazine 1-oxide]
